Data reported in ChEMBL document CHEMBL5346950, “Development of Biaryl-Containing Aldo-Keto Reductase 1C3 (AKR1C3) Inhibitors for Reversing AKR1C3-Mediated Drug Resistance in Cancer Treatment” (J Med Chem, 2023).

How the values were obtained:
[1] = test system: MCF7; test: Synergistic antitumor activity against human MCF7 cells expressing AKR1C3 xenografted in BALB/c nude mouse assessed as tumor growth inhibition at 10 mg/kg, po administered every 2 days for 3 weeks in presence of doxorubicin and measured every 3 days by caliper analysis relative to control; format: functional
[2] = test system: MCF7; test: Synergistic antiproliferative activity against human MCF7 cells overexpressing AKR1C3 assessed as dose reduction index for doxorubicin at 50 uM incubated for 72 hrs in presence of doxorubicin at 100 nM by Chou-Talalay method; format: functional
[3] = test system: MCF7; test: Synergistic antiproliferative activity against human MCF7 cells overexpressing AKR1C3 assessed as combination index at 50 uM incubated for 72 hrs in presence of doxorubicin at 100 nM by Chou-Talalay method; format: functional
[4] = test system: MCF7; test: Synergistic antiproliferative activity against human MCF7 cells overexpressing AKR1C3 assessed as combination index at 25 uM incubated for 72 hrs in presence of doxorubicin at 200 nM by Chou-Talalay method; format: functional
[5] = biological target: T1, Aldo-keto reductase family 1 member C4 (Homo sapiens, UniProt P17516); test: Inhibition of human recombinant AKR1C4 transfected in Escherichia coli BL21 (DE3) pLysS competent cells using S-tetralol as substrate assessed as inhibition of NADP+ dependent substrate oxidation incubated for 10 mins by fluorescence microplate reader assay
T1 sequence (P17516 whole entry): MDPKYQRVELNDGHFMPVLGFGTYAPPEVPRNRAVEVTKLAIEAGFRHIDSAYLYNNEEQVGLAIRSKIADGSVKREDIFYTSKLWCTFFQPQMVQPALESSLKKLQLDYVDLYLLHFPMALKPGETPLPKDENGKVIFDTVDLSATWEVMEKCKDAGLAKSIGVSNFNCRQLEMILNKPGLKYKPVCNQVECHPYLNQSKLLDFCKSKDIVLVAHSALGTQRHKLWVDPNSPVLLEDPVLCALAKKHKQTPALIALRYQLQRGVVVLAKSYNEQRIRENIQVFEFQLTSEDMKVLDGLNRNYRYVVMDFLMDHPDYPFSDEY

[6] = MRT (0 to infinity) in Sprague-Dawley rat at 2 mg/kg, iv measured for 5760 mins by LC-MS/MS analysis; format: ADME, organism-based; conditions: in vivo
[7] = test system: MCF7; test: Antitumor activity against human MCF7 cells expressing AKR1C3 xenografted in BALB/c nude mouse assessed as tumor growth inhibition at 10 mg/kg, po administered every 2 days for 3 weeks and measured every 3 days by caliper analysis relative to control; format: functional
[8] = Toxicity in BALB/c nude mouse xenografted with human MCF7 cells expressing AKR1C3 assessed as histopathological changes in lungs at 10 mg/kg, po administered every 2 days for 3 weeks in presence of doxorubicin by H and E staining based analysis; format: organism-based; conditions: in vivo, 504 h

O=C(O)C1(c2ccc(-c3cc(Cl)cc(Cl)c3)c(F)c2)CC1
TGI [1]: 87.46%
Activity_index [2]: 15.324
CI [3]: 0.214
CI [4]: 0.274
IC50 [5]: > 10 µM
MRT inf [6]: 51.1 h
TGI [7]: 36.98%
Activity [8]: Non-Toxic
